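Compound exposure: 48 hours, 5 concentrations, 96-well plates. TGI: total growth inhibition.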
Tests used:
Assay in all cases: NCI anticancer screen, dose series, 48 h
SNB-78 CNS = system: SNB-78 CNS
M19-MEL melanoma = system: M19-MEL melanoma
CAKI-1 renal = system: CAKI-1 renal
MALME-3M melanoma = system: MALME-3M melanoma
HCT-15 colon = system: HCT-15 colon
ACHN renal = system: ACHN renal
KM12 colon = system: KM12 colon
HOP-62 NSCLC = system: HOP-62 NSCLC
SF-268 CNS = system: SF-268 CNS
HL-60(TB) leukemia = system: HL-60(TB) leukemia
SW-620 colon = system: SW-620 colon
DMS 114 small cell lung = system: DMS 114 small cell lung
U251 CNS = system: U251 CNS
COLO 205 colon = system: COLO 205 colon
HCC-2998 colon = system: HCC-2998 colon
LOX IMVI melanoma = system: LOX IMVI melanoma
SNB-75 CNS = system: SNB-75 CNS
M14 melanoma = system: M14 melanoma
CCRF-CEM leukemia = system: CCRF-CEM leukemia
OVCAR-5 ovarian = system: OVCAR-5 ovarian
RXF-631 renal = system: RXF-631 renal
HT29 colon = system: HT29 colon
NCI-H522 lung = system: NCI-H522 lung
SNB-19 CNS = system: SNB-19 CNS
UACC-257 melanoma = system: UACC-257 melanoma
HCT-116 colon = system: HCT-116 colon
NCI-H23 lung = system: NCI-H23 lung
EKVX NSCLC = system: EKVX NSCLC
MOLT-4 leukemia = system: MOLT-4 leukemia
SK-MEL-2 melanoma = system: SK-MEL-2 melanoma
SK-MEL-28 melanoma = system: SK-MEL-28 melanoma
TK-10 renal = system: TK-10 renal
K-562 leukemia = system: K-562 leukemia
NCI-H460 lung = system: NCI-H460 lung
RPMI-8226 leukemia = system: RPMI-8226 leukemia
SF-295 CNS = system: SF-295 CNS
LXFL 529 NSCLC = system: LXFL 529 NSCLC
IGROV1 ovarian = system: IGROV1 ovarian
SN12C renal = system: SN12C renal
NCI-H226 lung = system: NCI-H226 lung
DLD-1 colon = system: DLD-1 colon
SF-539 CNS = system: SF-539 CNS
SK-MEL-5 melanoma = system: SK-MEL-5 melanoma
OVCAR-4 ovarian = system: OVCAR-4 ovarian
A549 NSCLC = system: A549 NSCLC
KM20L2 colon = system: KM20L2 colon
UACC-62 melanoma = system: UACC-62 melanoma
A498 renal = system: A498 renal
UO-31 renal = system: UO-31 renal
RXF 393 renal = system: RXF 393 renal
786-0 renal = system: 786-0 renal
SK-OV-3 ovarian = system: SK-OV-3 ovarian
DMS 273 small cell lung = system: DMS 273 small cell lung
HOP-92 NSCLC = system: HOP-92 NSCLC
SR leukemia = system: SR leukemia
XF 498 CNS = system: XF 498 CNS
OVCAR-3 ovarian = system: OVCAR-3 ovarian
OVCAR-8 ovarian = system: OVCAR-8 ovarian

With `CCOC(=O)C(=O)Nc1ccc(C)c(C)c1` the TGI (SNB-78 CNS) was greater than 100 µM, the TGI (M19-MEL melanoma) was greater than 100 µM and the TGI (CAKI-1 renal) was greater than 100 µM. It also gave a TGI (MALME-3M melanoma) greater than 100 µM, a TGI (HCT-15 colon) greater than 55.4 µM and a TGI (ACHN renal) greater than 100 µM. The TGI (KM12 colon) was greater than 93.8 µM, the TGI (HOP-62 NSCLC) was greater than 100 µM and the TGI (SF-268 CNS) was greater than 100 µM. The TGI (HL-60(TB) leukemia) was greater than 100 µM, the TGI (SW-620 colon) was 20 µM and the TGI (DMS 114 small cell lung) was greater than 56.5 µM. It also gave a TGI (U251 CNS) greater than 100 µM, a TGI (COLO 205 colon) of 32.2 µM and a TGI (HCC-2998 colon) greater than 100 µM. For the same compound, the TGI (LOX IMVI melanoma) was greater than 100 µM, the TGI (SNB-75 CNS) was greater than 100 µM and the TGI (M14 melanoma) was greater than 100 µM. The TGI (CCRF-CEM leukemia) was greater than 100 µM, the TGI (OVCAR-5 ovarian) was greater than 100 µM and the TGI (RXF-631 renal) was greater than 100 µM. The TGI (HT29 colon) was greater than 100 µM, the TGI (NCI-H522 lung) was greater than 100 µM and the TGI (SNB-19 CNS) was greater than 100 µM. It also gave a TGI (UACC-257 melanoma) greater than 100 µM, a TGI (HCT-116 colon) greater than 100 µM and a TGI (NCI-H23 lung) greater than 100 µM. The TGI (EKVX NSCLC) was greater than 100 µM, the TGI (MOLT-4 leukemia) was greater than 100 µM and the TGI (SK-MEL-2 melanoma) was greater than 100 µM. For the same compound, the TGI (SK-MEL-28 melanoma) was greater than 100 µM, the TGI (TK-10 renal) was greater than 100 µM and the TGI (K-562 leukemia) was greater than 100 µM. For the same compound, the TGI (NCI-H460 lung) was greater than 100 µM, the TGI (RPMI-8226 leukemia) was greater than 100 µM and the TGI (SF-295 CNS) was greater than 100 µM. The TGI (LXFL 529 NSCLC) was greater than 100 µM, the TGI (IGROV1 ovarian) was greater than 100 µM and the TGI (SN12C renal) was greater than 100 µM. For the same compound, the TGI (NCI-H226 lung) was greater than 100 µM, the TGI (DLD-1 colon) was greater than 100 µM and the TGI (SF-539 CNS) was greater than 100 µM. For the same compound, the TGI (SK-MEL-5 melanoma) was greater than 100 µM, the TGI (OVCAR-4 ovarian) was greater than 100 µM and the TGI (A549 NSCLC) was greater than 100 µM. It also gave a TGI (KM20L2 colon) greater than 100 µM, a TGI (UACC-62 melanoma) greater than 100 µM and a TGI (A498 renal) greater than 100 µM. For the same compound, the TGI (UO-31 renal) was greater than 100 µM, the TGI (RXF 393 renal) was greater than 100 µM and the TGI (786-0 renal) was greater than 100 µM. The TGI (SK-OV-3 ovarian) was greater than 100 µM and the TGI (DMS 273 small cell lung) was greater than 100 µM.
Compound `O=C(NN1C(=O)CS(=O)(=O)C1c1cccc(F)c1)c1ccncc1` (stereo unspecified) has a TGI (HOP-92 NSCLC) greater than 100 µM, a TGI (CAKI-1 renal) greater than 100 µM and a TGI (MALME-3M melanoma) greater than 100 µM. The TGI (HCT-15 colon) was greater than 100 µM, the TGI (ACHN renal) was greater than 100 µM and the TGI (KM12 colon) was greater than 100 µM. It also gave a TGI (HOP-62 NSCLC) greater than 100 µM, a TGI (SF-268 CNS) greater than 100 µM and a TGI (HL-60(TB) leukemia) greater than 100 µM. For the same compound, the TGI (SW-620 colon) was greater than 100 µM, the TGI (DMS 114 small cell lung) was greater than 100 µM and the TGI (COLO 205 colon) was greater than 100 µM. For the same compound, the TGI (HCC-2998 colon) was greater than 100 µM, the TGI (LOX IMVI melanoma) was greater than 100 µM and the TGI (SNB-75 CNS) was greater than 100 µM. It also gave a TGI (M14 melanoma) greater than 100 µM, a TGI (OVCAR-5 ovarian) greater than 100 µM and a TGI (RXF-631 renal) greater than 100 µM. For the same compound, the TGI (HT29 colon) was greater than 100 µM, the TGI (SR leukemia) was greater than 100 µM and the TGI (NCI-H522 lung) was greater than 100 µM. The TGI (SNB-19 CNS) was greater than 100 µM, the TGI (UACC-257 melanoma) was greater than 100 µM and the TGI (HCT-116 colon) was greater than 100 µM. It also gave a TGI (MOLT-4 leukemia) greater than 100 µM, a TGI (SK-MEL-2 melanoma) greater than 100 µM and a TGI (SK-MEL-28 melanoma) greater than 100 µM. It also gave a TGI (XF 498 CNS) greater than 100 µM, a TGI (TK-10 renal) greater than 100 µM and a TGI (NCI-H460 lung) greater than 100 µM. It also gave a TGI (RPMI-8226 leukemia) greater than 100 µM, a TGI (SF-295 CNS) greater than 100 µM and a TGI (LXFL 529 NSCLC) greater than 100 µM. For the same compound, the TGI (SN12C renal) was greater than 100 µM, the TGI (NCI-H226 lung) was greater than 100 µM and the TGI (DLD-1 colon) was greater than 100 µM. The TGI (SK-MEL-5 melanoma) was greater than 100 µM, the TGI (OVCAR-4 ovarian) was greater than 100 µM and the TGI (A549 NSCLC) was greater than 100 µM. For the same compound, the TGI (A498 renal) was greater than 100 µM, the TGI (RXF 393 renal) was greater than 100 µM and the TGI (786-0 renal) was greater than 100 µM. For the same compound, the TGI (SK-OV-3 ovarian) was greater than 100 µM and the TGI (DMS 273 small cell lung) was greater than 100 µM.
Work on `O=C1CCCCCCCCCCC(=O)N2CCOCCOCCN1Cc1cccc(n1)C2` yielded a TGI (SNB-78 CNS) greater than 100 µM, a TGI (M19-MEL melanoma) greater than 100 µM and a TGI (CAKI-1 renal) greater than 100 µM. For the same compound, the TGI (MALME-3M melanoma) was greater than 100 µM, the TGI (HCT-15 colon) was greater than 100 µM and the TGI (ACHN renal) was greater than 100 µM. For the same compound, the TGI (KM12 colon) was greater than 100 µM, the TGI (HOP-62 NSCLC) was greater than 100 µM and the TGI (SF-268 CNS) was greater than 100 µM. It also gave a TGI (SW-620 colon) greater than 100 µM, a TGI (DMS 114 small cell lung) greater than 100 µM and a TGI (U251 CNS) greater than 100 µM. For the same compound, the TGI (COLO 205 colon) was greater than 100 µM, the TGI (HCC-2998 colon) was greater than 100 µM and the TGI (LOX IMVI melanoma) was greater than 100 µM. It also gave a TGI (SNB-75 CNS) greater than 100 µM, a TGI (M14 melanoma) greater than 100 µM and a TGI (CCRF-CEM leukemia) greater than 100 µM. The TGI (OVCAR-5 ovarian) was greater than 100 µM, the TGI (RXF-631 renal) was greater than 100 µM and the TGI (HT29 colon) was greater than 100 µM. The TGI (OVCAR-3 ovarian) was greater than 100 µM, the TGI (NCI-H522 lung) was greater than 100 µM and the TGI (OVCAR-8 ovarian) was greater than 100 µM. For the same compound, the TGI (SNB-19 CNS) was greater than 100 µM, the TGI (UACC-257 melanoma) was greater than 100 µM and the TGI (HCT-116 colon) was greater than 100 µM. The TGI (NCI-H23 lung) was greater than 100 µM, the TGI (EKVX NSCLC) was greater than 100 µM and the TGI (MOLT-4 leukemia) was greater than 100 µM. The TGI (SK-MEL-2 melanoma) was greater than 100 µM, the TGI (SK-MEL-28 melanoma) was greater than 100 µM and the TGI (TK-10 renal) was greater than 100 µM. The TGI (K-562 leukemia) was greater than 100 µM, the TGI (NCI-H460 lung) was greater than 100 µM and the TGI (RPMI-8226 leukemia) was greater than 100 µM. The TGI (SF-295 CNS) was greater than 100 µM, the TGI (LXFL 529 NSCLC) was greater than 100 µM and the TGI (IGROV1 ovarian) was greater than 100 µM. For the same compound, the TGI (SN12C renal) was greater than 100 µM, the TGI (NCI-H226 lung) was greater than 100 µM and the TGI (DLD-1 colon) was greater than 100 µM. The TGI (SF-539 CNS) was greater than 100 µM, the TGI (SK-MEL-5 melanoma) was greater than 100 µM and the TGI (OVCAR-4 ovarian) was greater than 100 µM. For the same compound, the TGI (A549 NSCLC) was greater than 100 µM, the TGI (KM20L2 colon) was greater than 100 µM and the TGI (UACC-62 melanoma) was greater than 100 µM. For the same compound, the TGI (A498 renal) was greater than 100 µM, the TGI (UO-31 renal) was greater than 100 µM and the TGI (RXF 393 renal) was greater than 100 µM. For the same compound, the TGI (786-0 renal) was greater than 100 µM, the TGI (SK-OV-3 ovarian) was greater than 100 µM and the TGI (DMS 273 small cell lung) was greater than 100 µM.
